This is an account of results in ChEMBL document CHEMBL5465560, “Selectivity Literature for EUbOPEN Chemogenomic Library” (2024).

Experiment [1] addresses Calcium/calmodulin-dependent protein kinase type II subunit delta (Homo sapiens) (UniProt Q13557). As to conditions: at 10 µM.
Experiment [2] deals with T1, cGMP-dependent protein kinase 1 (Homo sapiens) (UniProt Q13976).
T1 sequence (whole entry): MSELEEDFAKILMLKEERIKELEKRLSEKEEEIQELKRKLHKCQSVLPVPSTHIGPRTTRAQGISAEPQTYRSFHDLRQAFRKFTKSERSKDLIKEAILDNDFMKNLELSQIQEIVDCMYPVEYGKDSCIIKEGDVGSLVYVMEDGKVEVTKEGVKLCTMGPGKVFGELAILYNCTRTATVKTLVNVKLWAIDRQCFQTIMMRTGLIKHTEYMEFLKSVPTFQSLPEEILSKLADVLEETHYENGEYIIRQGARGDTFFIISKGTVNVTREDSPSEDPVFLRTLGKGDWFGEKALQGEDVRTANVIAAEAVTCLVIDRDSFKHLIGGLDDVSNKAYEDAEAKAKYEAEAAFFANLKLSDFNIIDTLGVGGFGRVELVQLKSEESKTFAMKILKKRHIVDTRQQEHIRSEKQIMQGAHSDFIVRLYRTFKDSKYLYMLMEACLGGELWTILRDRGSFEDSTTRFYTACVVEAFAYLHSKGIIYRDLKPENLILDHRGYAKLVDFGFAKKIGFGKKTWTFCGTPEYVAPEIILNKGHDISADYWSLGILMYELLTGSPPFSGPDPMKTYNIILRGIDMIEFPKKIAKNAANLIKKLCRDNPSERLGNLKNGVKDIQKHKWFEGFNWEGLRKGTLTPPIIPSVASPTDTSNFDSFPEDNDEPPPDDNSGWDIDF
As to conditions: at 10 µM.

Experiment [3] concerns the target Tyrosine-protein kinase SYK (Homo sapiens, UniProt P43405). The experiment is described as follows: Selectivity interaction (KinomeScan (DiscoverX)) EUB0001079a SYK. The note with it: at 1 µM.
Experiment [4] concerns the target T2, Histone-arginine methyltransferase CARM1 (Homo sapiens, UniProt Q86X55).
T2 sequence (Q86X55 whole entry): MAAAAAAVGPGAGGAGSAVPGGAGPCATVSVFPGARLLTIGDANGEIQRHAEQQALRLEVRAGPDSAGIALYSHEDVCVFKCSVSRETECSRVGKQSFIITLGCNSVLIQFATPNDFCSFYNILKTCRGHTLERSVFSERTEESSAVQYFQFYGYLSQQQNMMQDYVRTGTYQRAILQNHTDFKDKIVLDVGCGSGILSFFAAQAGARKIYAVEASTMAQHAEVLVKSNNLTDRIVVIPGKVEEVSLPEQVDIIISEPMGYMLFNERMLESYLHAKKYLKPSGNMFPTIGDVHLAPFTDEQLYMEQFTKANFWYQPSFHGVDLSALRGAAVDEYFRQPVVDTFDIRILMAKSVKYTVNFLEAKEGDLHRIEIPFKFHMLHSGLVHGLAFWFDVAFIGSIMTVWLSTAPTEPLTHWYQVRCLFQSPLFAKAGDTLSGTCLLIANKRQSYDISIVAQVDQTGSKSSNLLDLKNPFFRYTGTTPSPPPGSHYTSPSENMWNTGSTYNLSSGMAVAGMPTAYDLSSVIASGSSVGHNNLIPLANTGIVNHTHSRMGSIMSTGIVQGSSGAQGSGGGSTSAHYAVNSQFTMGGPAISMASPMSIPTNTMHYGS
Briefly: Selectivity interaction (Western Blot (dimethylation of BAF155 (BAF155me2a/BAF155) in NCI-H929 cells)) EUB0000255b CARM1. The class given is cell-based.

Experiment [5] has as its target RAC-beta serine/threonine-protein kinase (Homo sapiens) (UniProt P31751). Briefly: Selectivity interaction (KinomeScan (DiscoverX)) EUB0001049a AKT2. The note with it: at 1 µM.
The target of experiment [6] is 5-hydroxytryptamine receptor 2A (Homo sapiens, UniProt P28223). Briefly: Selectivity interaction (Panel of kinases, GPCRs, ion channels and transporters (enzymatic assay)) EUB0000223bCl HTR2A.
Experiment [7] deals with T3, Dual specificity mitogen-activated protein kinase kinase 6 (Homo sapiens) (UniProt P52564).
T3 sequence (whole entry): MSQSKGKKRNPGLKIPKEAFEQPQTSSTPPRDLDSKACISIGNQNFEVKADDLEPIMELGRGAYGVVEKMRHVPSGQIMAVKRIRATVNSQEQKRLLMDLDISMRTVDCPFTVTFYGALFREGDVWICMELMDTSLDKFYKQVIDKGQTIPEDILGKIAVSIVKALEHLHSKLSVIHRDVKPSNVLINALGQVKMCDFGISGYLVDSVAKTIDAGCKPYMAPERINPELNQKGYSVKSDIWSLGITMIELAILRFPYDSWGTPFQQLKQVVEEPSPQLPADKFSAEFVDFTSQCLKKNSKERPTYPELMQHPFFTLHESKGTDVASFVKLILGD
The experiment is described as follows: Selectivity interaction (KinomeScan (DiscoverX)) EUB0000695a MAP2K6. As to conditions: at 100 nM.

In experiment [8] the test system is Epidermal growth factor receptor (Homo sapiens), P00533 [UNDEFINED MUTATION]. Briefly: Selectivity interaction (KinomeScan (DiscoverX)) EUB0000666a EGFR. The note with it: at 10 µM.
In experiment [9] the target is TGF-beta receptor type-2 (Homo sapiens) (UniProt P37173). Briefly: Selectivity interaction (KinomeScan (DiscoverX)) EUB0000229b TGFBR2. As to conditions: at 10 µM.
Experiment [10] relates to Phosphatidylinositol 4,5-bisphosphate 3-kinase catalytic subunit alpha isoform (Homo sapiens), P42336 [M1043I]. As to conditions: at 10 µM.
Experiment [11] addresses Platelet-derived growth factor receptor beta (Homo sapiens, UniProt P09619). Briefly: Selectivity interaction (KinomeScan (DiscoverX)) EUB0001619a PDGFRB. The note with it: at 1 µM.
The target in experiment [12] is Calcium/calmodulin-dependent protein kinase type II subunit gamma (Homo sapiens) (UniProt Q13555). Briefly: Selectivity interaction (ActivX KiNativ screen (ex vivo kinase selectivity in human PBMCs)) EUB0001619a CAMK2G. As to conditions: PBMC, at 1 µM. Type of experiment: cell-based.
For experiment [13], the target named is Mitogen-activated protein kinase 6 (Homo sapiens) (UniProt Q16659). The experiment is described as follows: Selectivity interaction (KinomeScan (DiscoverX)) EUB0000618a MAPK6. The note with it: at 10 µM.
Mitogen-activated protein kinase 6 (Homo sapiens), sequence (Q16659 whole entry): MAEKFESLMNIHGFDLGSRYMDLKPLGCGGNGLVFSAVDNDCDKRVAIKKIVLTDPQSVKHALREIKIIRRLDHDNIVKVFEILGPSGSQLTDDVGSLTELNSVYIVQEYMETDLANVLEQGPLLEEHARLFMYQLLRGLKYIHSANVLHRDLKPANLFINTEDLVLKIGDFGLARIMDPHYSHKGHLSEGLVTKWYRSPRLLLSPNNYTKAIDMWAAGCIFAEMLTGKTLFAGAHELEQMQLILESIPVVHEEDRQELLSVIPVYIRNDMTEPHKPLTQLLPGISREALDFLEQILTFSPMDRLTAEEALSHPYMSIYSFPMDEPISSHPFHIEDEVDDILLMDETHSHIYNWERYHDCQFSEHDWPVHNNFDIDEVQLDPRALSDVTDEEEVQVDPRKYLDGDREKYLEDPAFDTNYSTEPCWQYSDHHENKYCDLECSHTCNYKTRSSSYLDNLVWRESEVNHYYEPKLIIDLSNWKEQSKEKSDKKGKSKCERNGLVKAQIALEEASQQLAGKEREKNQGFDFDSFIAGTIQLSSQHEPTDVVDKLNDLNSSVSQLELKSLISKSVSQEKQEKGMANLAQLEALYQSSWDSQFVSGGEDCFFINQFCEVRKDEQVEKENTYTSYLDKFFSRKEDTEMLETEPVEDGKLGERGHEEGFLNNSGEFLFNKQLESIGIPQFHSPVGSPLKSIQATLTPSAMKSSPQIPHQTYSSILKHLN

Epidermal growth factor receptor (Homo sapiens), P00533 [UNDEFINED MUTATION], sequence (P00533 whole entry, looked up, change not shown): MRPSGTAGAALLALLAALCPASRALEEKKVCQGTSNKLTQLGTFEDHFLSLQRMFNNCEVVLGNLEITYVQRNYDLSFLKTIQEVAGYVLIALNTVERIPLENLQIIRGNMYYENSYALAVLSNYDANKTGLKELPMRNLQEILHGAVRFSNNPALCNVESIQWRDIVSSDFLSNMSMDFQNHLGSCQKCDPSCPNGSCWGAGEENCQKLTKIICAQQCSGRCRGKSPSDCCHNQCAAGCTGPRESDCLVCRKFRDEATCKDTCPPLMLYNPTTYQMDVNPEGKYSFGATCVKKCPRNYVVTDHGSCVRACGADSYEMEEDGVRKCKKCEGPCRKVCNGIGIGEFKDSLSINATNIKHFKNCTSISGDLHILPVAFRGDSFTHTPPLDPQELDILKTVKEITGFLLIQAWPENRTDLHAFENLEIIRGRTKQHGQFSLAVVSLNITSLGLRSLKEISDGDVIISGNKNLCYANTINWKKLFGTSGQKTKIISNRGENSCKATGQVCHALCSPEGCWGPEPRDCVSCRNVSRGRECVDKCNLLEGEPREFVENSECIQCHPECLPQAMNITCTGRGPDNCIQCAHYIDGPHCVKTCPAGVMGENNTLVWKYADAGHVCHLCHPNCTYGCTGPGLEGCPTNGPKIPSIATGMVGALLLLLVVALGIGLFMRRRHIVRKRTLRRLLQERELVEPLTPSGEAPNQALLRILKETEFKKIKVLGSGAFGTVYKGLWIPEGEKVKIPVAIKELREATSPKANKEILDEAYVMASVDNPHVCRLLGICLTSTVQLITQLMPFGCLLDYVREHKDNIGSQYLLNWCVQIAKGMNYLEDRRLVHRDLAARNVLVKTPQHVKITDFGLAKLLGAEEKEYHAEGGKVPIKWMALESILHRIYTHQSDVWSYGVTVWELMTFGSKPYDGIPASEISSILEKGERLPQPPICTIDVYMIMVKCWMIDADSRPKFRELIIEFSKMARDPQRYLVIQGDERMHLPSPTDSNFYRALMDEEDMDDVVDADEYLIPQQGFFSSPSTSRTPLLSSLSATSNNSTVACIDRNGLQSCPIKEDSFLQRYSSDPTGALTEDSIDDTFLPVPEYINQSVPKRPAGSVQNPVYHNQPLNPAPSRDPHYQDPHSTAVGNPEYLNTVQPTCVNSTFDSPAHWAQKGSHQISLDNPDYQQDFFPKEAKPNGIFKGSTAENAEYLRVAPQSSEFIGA
Calcium/calmodulin-dependent protein kinase type II subunit delta (Homo sapiens), sequence (Q13557 whole entry): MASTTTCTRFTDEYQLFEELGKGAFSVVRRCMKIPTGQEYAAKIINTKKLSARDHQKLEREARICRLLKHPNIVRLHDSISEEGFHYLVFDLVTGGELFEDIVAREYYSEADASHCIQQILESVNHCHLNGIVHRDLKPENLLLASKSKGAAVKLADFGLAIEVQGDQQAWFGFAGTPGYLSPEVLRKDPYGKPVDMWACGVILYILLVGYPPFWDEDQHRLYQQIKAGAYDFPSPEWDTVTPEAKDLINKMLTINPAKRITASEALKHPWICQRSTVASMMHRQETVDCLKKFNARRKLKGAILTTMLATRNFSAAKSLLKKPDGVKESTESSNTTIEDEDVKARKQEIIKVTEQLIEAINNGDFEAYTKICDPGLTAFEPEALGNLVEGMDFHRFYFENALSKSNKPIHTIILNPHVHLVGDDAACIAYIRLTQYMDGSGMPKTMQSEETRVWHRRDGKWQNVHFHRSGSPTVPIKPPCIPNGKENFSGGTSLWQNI
RAC-beta serine/threonine-protein kinase (Homo sapiens), sequence (P31751 whole entry): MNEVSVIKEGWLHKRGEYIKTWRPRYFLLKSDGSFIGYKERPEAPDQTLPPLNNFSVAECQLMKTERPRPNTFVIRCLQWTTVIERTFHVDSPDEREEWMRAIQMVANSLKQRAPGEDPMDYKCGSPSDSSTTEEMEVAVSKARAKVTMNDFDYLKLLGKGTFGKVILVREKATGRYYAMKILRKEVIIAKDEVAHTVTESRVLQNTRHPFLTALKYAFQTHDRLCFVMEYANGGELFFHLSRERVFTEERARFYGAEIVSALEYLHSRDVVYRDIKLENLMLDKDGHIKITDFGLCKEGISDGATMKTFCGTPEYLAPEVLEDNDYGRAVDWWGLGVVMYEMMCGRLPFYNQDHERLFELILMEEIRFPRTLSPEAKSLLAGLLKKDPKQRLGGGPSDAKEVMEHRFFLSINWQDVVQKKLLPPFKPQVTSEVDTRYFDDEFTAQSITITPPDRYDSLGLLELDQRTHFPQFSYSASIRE
Calcium/calmodulin-dependent protein kinase type II subunit gamma (Homo sapiens), sequence (Q13555 whole entry): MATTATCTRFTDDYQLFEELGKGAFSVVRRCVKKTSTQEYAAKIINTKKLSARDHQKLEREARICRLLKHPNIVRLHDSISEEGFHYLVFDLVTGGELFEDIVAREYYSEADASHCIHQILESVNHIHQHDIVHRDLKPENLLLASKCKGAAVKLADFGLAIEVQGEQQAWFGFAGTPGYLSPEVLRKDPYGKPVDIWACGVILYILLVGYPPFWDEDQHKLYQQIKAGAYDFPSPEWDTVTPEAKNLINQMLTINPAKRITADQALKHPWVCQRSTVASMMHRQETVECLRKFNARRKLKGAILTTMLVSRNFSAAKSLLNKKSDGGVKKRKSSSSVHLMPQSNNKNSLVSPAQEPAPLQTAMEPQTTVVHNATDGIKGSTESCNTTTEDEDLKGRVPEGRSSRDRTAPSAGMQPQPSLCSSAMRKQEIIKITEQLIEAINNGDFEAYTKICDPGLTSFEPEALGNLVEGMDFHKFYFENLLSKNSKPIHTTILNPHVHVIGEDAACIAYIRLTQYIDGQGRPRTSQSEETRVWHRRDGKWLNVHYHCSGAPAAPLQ
TGF-beta receptor type-2 (Homo sapiens), sequence (P37173 whole entry, canonical isoform): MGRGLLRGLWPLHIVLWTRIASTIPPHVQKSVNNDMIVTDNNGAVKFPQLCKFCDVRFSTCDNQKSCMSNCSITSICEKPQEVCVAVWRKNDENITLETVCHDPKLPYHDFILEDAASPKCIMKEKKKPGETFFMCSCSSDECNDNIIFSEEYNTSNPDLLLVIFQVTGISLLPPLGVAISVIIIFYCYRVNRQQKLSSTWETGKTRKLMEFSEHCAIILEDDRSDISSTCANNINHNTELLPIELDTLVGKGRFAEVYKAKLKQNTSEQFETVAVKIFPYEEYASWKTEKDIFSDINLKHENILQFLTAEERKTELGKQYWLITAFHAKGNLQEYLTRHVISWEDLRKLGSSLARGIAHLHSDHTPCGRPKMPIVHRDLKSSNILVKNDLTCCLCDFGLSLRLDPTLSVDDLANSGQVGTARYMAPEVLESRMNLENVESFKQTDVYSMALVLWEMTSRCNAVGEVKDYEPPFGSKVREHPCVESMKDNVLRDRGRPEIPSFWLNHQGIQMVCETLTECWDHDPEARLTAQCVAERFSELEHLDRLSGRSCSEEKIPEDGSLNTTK
5-hydroxytryptamine receptor 2A, sequence (P28223 whole entry): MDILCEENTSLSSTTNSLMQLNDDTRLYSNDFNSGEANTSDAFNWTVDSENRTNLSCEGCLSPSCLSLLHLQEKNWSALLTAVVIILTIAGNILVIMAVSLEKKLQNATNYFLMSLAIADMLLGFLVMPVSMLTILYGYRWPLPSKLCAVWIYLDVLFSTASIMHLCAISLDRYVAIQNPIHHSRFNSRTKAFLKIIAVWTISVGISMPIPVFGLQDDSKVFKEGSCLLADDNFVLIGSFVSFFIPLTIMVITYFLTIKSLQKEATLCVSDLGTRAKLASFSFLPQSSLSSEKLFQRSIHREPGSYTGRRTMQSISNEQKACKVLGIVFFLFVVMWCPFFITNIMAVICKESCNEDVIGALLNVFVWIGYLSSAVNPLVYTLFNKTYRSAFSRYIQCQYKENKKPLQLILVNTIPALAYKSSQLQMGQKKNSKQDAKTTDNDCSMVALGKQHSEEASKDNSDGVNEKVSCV

In the case of `Cc1cc([C@@H](C)Nc2ccccc2C(=O)O)c2nc(N3CCOCC3)cc(=O)n2c1` [AZD-6482], the % of control in experiment [1] is 95%. With `CCN(CC)CCCCNc1ncc2cc(-c3cc(OC)cc(OC)c3)c(NC(=O)NC(C)(C)C)nc2n1`, the % of control in experiment [2] was determined as 100%.

In experiment [3], `Nc1cnc(N2CCc3cc(S(=O)(=O)Nc4c(F)cc(Cl)cc4F)cc(N4CCCC4=O)c32)nc1` [TP-020n] had a % of control of 100%.

In experiment [4], `COCCN1CCC(c2cc(CN(C)C(=O)c3cccc(Oc4ccccc4)c3)ccn2)CC1` showed an IC50 of over 3 nM.

For `COc1cc(Nc2nc(C)cc(-c3cnn4nc(OC)ccc34)n2)cc(C(F)(F)F)c1`, the % of control in experiment [5] came to 100%.

With `COc1cc(C(=O)N2CC[C@@H](O)[C@@H](N)C2)cc2nc(-c3cc4ccccc4n3CC3CC3)n(C)c12`, the pXC50 in experiment [6] was under 4.4 M. As for `Cc1cc(F)c(C(=O)Nc2cccc(-c3nncn3C(C)C)n2)cc1-n1cnc(C2CC2)c1`, in experiment [7], the % of control worked out at 100%. Molecule `O=C(NOC[C@H](O)CO)c1ccc(F)c(F)c1Nc1ccc(I)cc1F` yielded a % of control in [8] of 70%.

`COc1cc(N(C)c2ccnc3ccc(C(F)(F)F)cc23)cc(OC)c1OC` showed a % binding in experiment [9] of 94%. `COCC(=O)NC/C=C/c1ccc2ncnc(Nc3ccc(Oc4ccc(C)nc4)c(C)c3)c2c1` [CP-724714]: the % of control in experiment [10] amounted to 100%. `N#Cc1cccc(-c2c[nH]c3ncnc(N4CCOCC4)c23)c1`: the % of control in [11] came out at 90%. In addition, the % of inhibition in experiment [12] stood at 10%. As to `O[C@H]1CC[C@H](Nc2ncc3nc(Nc4c(F)cc(F)cc4F)n([C@H]4CCOC4)c3n2)CC1`, the % of control in [13] came to 24%.
